Test results from patent US10167262B2, “Herbicidal substituted 3-arylpyrazoles” (FMC CORPORATION, priority 2014, dated 2019).

Experiments:
Format in all cases: in vivo
[1] = system: waterhemp_RES2, (ALS & HPPD resistant common waterhemp, Amaranthus rudis); test: Test E postemergence greenhouse test, plant response rating 0-100; conditions: scale 0 to 100
How it was run: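 Resistant waterhemp biotypes grown in peat/vermiculite medium and treated postemergence at 2–18 cm height (1- to 4-leaf stage). Kept in greenhouse 14 to 21 days, then visually rated against untreated controls on a 0–100 scale (0 no effect, 100 complete control).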

[2] = system: field bindweed (Convolvulus arvensis); test: Test E pre-/postemergence greenhouse test, plant response rating 0-100; conditions: scale 0 to 100; for Field Bindweed plant response rating: Preemergence
How it was run: (§1)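 Ratings (0 no effect to 100 complete control) came from visual comparison with untreated controls 14 to 21 days after treatment. Compounds in a surfactant-containing non-phytotoxic solvent were applied preemergence to seeded silt loam and postemergence to plants at the 1- to 4-leaf stage.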

[3] = system: Italian ryegrass (Lolium multiflorum); test: as above; conditions: scale 0 to 100; for Ryegrass, Italian plant response rating: Preemergence
How it was run: as §1

[4] = system: dayflower (Virginia (VA) dayflower, Commelina virginica); test: as above; conditions: scale 0 to 100; for Dayflower, VA plant response rating: Preemergence
How it was run: as §1

[5] = system: barnyardgrass (Echinochloa crus-galli); test: Test C pre-/postemergence greenhouse test, plant response rating 0-100; conditions: Preemergence
How it was run: (§2)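 Greenhouse test. Preemergence: seed in loam:sand, sprayed with formulated chemical (solvent + surfactant). Postemergence: 1–4 leaf plants, 2–18 cm, peat-based potting medium. Hold 13–15 d; score visually, 0 (none) to 100 (complete control); dash = not tested.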

[6] = system: waterhemp (common waterhemp, Amaranthus rudis); test: as above; conditions: Preemergence
How it was run: as §2

[7] = system: ducksalad (Heteranthera limosa); test: Test B flooded paddy test, plant response rating 0-100; conditions: Flood, 250 g ai/ha; scale 0 to 100 (0 no effect, 100 complete control); 13 to 15 days
How it was run: (§3)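 Flooded 3 cm over soil; compound into paddy water; depth kept constant. Greenhouse 13–15 d.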

[8] = system: barnyardgrass (Echinochloa crus-galli); test: as above; conditions: Flood, 250 g ai/ha; scale 0 to 100 (0 no effect, 100 complete control); 13 to 15 days
How it was run: as §3

rice (Oryza sativa) = test: as above; conditions: Flood, 250 g ai/ha; scale 0 to 100 (0 no effect, 100 complete control); 13 to 15 days
How it was run: as §3

[9] = system: sedge, umbrella (small-flower umbrella sedge, Cyperus difformis); test: as above; conditions: Flood, 250 g ai/ha; scale 0 to 100 (0 no effect, 100 complete control); 13 to 15 days
How it was run: as §3

C#CCn1cc(C(=O)c2ccccc2)c(-c2cc(Cl)cc(Cl)c2)n1 [Compound 39, [3-(3,5-dichlorophenyl)-1-(2-propyn-1-yl)-1H-pyrazol-4-yl]phenylmethanone]
Plant response rating, Waterhemp_RES2 ([1]; 31 g ai/ha): 70
Plant response rating, Waterhemp_RES2 ([1]; 62 g ai/ha): 75
Plant response rating, Waterhemp_RES2 ([1]; 125 g ai/ha): 85
Plant response rating, Waterhemp_RES2 ([1]; 250 g ai/ha): 90
Plant response rating, Waterhemp_RES2 ([1]; 500 g ai/ha): 90
pest or weed control at 31 g/ha ([2]; Convolvulus arvensis, post-emergence, Postemergence, 31 g ai/ha): 0%
pest or weed control at 62 g/ha ([2]; Convolvulus arvensis, post-emergence, Postemergence, 62 g ai/ha): 0%
pest or weed control at 125 g/ha ([2]; Convolvulus arvensis, post-emergence, Postemergence, 125 g ai/ha): 0%
pest or weed control at 250 g/ha ([2]; Convolvulus arvensis, post-emergence, Postemergence, 250 g ai/ha): 10%
pest or weed control at 500 g/ha ([2]; Convolvulus arvensis, post-emergence, Postemergence, 500 g ai/ha): 10%
Field Bindweed plant response rating ([2]; 62 g ai/ha): 0
Field Bindweed plant response rating ([2]; 125 g ai/ha): 0
Field Bindweed plant response rating ([2]; 250 g ai/ha): 0
Field Bindweed plant response rating ([2]; 500 g ai/ha): 0
pest or weed control at 31 g/ha ([3]; Lolium multiflorum, post-emergence, Postemergence, 31 g ai/ha): 0%
pest or weed control at 62 g/ha ([3]; Lolium multiflorum, post-emergence, Postemergence, 62 g ai/ha): 0%
pest or weed control at 125 g/ha ([3]; Lolium multiflorum, post-emergence, Postemergence, 125 g ai/ha): 0%
pest or weed control at 250 g/ha ([3]; Lolium multiflorum, post-emergence, Postemergence, 250 g ai/ha): 0%
pest or weed control at 500 g/ha ([3]; Lolium multiflorum, post-emergence, Postemergence, 500 g ai/ha): 0%
Ryegrass, Italian plant response rating ([3]; 62 g ai/ha): 0
Ryegrass, Italian plant response rating ([3]; 125 g ai/ha): 0
Ryegrass, Italian plant response rating ([3]; 250 g ai/ha): 0
Ryegrass, Italian plant response rating ([3]; 500 g ai/ha): 0
pest or weed control at 31 g/ha ([4]; Commelina virginica, post-emergence, Postemergence, 31 g ai/ha): 0%
pest or weed control at 62 g/ha ([4]; Commelina virginica, post-emergence, Postemergence, 62 g ai/ha): 0%
pest or weed control at 125 g/ha ([4]; Commelina virginica, post-emergence, Postemergence, 125 g ai/ha): 0%
pest or weed control at 250 g/ha ([4]; Commelina virginica, post-emergence, Postemergence, 250 g ai/ha): 0%
pest or weed control at 500 g/ha ([4]; Commelina virginica, post-emergence, Postemergence, 500 g ai/ha): 0%
Dayflower, VA plant response rating ([4]; 62 g ai/ha): 0
Dayflower, VA plant response rating ([4]; 125 g ai/ha): 0
Dayflower, VA plant response rating ([4]; 250 g ai/ha): 0
Dayflower, VA plant response rating ([4]; 500 g ai/ha): 0
Plant response rating, Barnyardgrass ([5]; 62 g ai/ha): 0
Plant response rating, Barnyardgrass ([5]; 125 g ai/ha): 0
Plant response rating, Barnyardgrass ([5]; 250 g ai/ha): 0
Plant response rating, Barnyardgrass ([5]; 500 g ai/ha): 0
Plant response rating, Waterhemp ([6]; 62 g ai/ha): 75
Plant response rating, Waterhemp ([6]; 125 g ai/ha): 100
Plant response rating, Waterhemp ([6]; 250 g ai/ha): 100
Plant response rating, Waterhemp ([6]; 500 g ai/ha): 100
Plant response rating, Ducksalad [7]: 0
Plant response rating, Barnyardgrass [8]: 0
Plant response rating, Rice (rice (Oryza sativa)): 0
Plant response rating, Sedge, Umbrella [9]: 0
